Consider 8 compounds from patent publication US20260049071A1, “PROTEIN TYROSINE KINASE INHIBITOR AND MEDICAL USE THEREOF” (BEYANG THERAPEUTICS CO., LTD., priority 2022, published 2026).

Each structure is given as a SMILES string. In brackets after ≈: the same amount, converted by molar mass. Bounds are passed on as bounds.

One data set deals with melanin. Description: Binding capacity of compounds to melanin. Format: in vitro ADME. The settings on record: Sepia officinalis (cuttlefish), melanin suspension (1 mg/mL); 1 mg/mL melanin suspension in PBS pH 7.4, 2 μM compound, 2 h at 37° C.; read-out: Fu % (percentage of free drug, not bound to melanin). The method, boiled down: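 Compound at 2 μM final incubated with 1 mg/mL Sepia melanin suspension in PBS pH 7.4 for 2 h at 37 °C with shaking; blank control in PBS with 0.1% BSA. Supernatant concentrations measured by LC-MS/MS; bound fraction from melanin versus control samples, free fraction as 100 − Fb.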

For another data set, the target named is EGFR (Homo sapiens (Human), UniProt P00533). Description: Kinase inhibition, Mobility Shift Assay (EGFR). Format: biochemical. The method, boiled down: (§1)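 Mobility shift assay: each kinase preincubated 10 min at room temperature with compound, then reacted with FAM-labeled peptide, MgCl2 and ATP at 28° C. for varying times. Substrate-to-product conversion read on Caliper; % inhibition normalised to no-kinase and DMSO controls, and IC50 fitted.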

In a further data set the target is FLT4 (VEGFR3) (Homo sapiens (Human), UniProt P35916). Description: Kinase inhibition, Mobility Shift Assay (VEGFR3). Format: biochemical. The method, boiled down: as §1
For data set [1], the target named is VEGFR2 autophosphorylation (pVEGFR2) in HUVEC cells (Homo sapiens (Human), UniProt P35968). Description: Inhibition of VEGF-induced VEGFR2 autophosphorylation in HUVEC cells (ELISA). The settings on record: 50 ng/ml human VEGF, compound 1 h. It counts as cell-based. The text has this:
Vascular endothelial growth factor receptor 2 (VEGFR2) is a primary receptor for VEGF-induced endothelial cell signaling. After ligand binding, VEGFR2 is autophosphorylated and activated. The main function of signaling from VEGFR2 is to induce vascularization during development and after tissue injury, and to bypass blocked blood vessels. Pathologically, VEGF and VEGFR2 are involved in tumor angiogenesis and vascular leakage. They are considered to be main participants in many different cancers and ocular diseases that accompany pathological neovascularization. This assay measured the ability of the compounds to inhibit VEGF-induced VEGFR2 autophosphorylation (pVEGFR2) in HUVEC cells by using ELISA.
Culture cells in a cell culture flask to reach a fusion degree of 60%-80% before cell inoculation. Dilute the cell suspension to […] with a pre-warmed complete medium. Add 80 μL of the cell suspension to all wells of a 96-well cell plate (Corning-3599); and incubate the plate overnight at 37° C. in the presence of 5% CO2. Dissolve the compound powder to 10 mM with DMSO and store it in a nitrogen cabinet. Compound dilution plate: Add a reference compound Ponatinib or a compound to be tested to a 96 V-well plate (Axygen-WIpp 2280) at concentrations achieved as follows: performing 3-fold gradient dilution starting from 5 mM (5 μL of 10 mM compound solution plus 5 μL of DMSO) for a total of 8 concentration points. […] Transfer 20 μL of the diluted compound from the intermediate plate to a cell plate. Then, incubate the cell plate for 1 h at 37° C. in the presence of 5% CO2. After the compound was treated for 1 h, add 25 μL of 250 ng/ml human VEGF at a final concentration of 50 ng/ml to a 96-well plate; and incubate the plate for 5 min at 37° C. in the presence of 5% CO2, centrifuge the plate for 10 min at 3,000 rpm, remove the medium and wash the cells once with 300 μL of pre-chilled DPBS per well. Then, centrifuge the plate for 10 min at 4,000 rpm, remove DPBS, and add 110 μL of pre-chilled 1× cell lysis buffer per well to the 96-well plate. Shake the plate for 40 min at 4° C. Then, freeze the plate in a refrigerator at −80° C. On the next day, remove the plate from the refrigerator at −80° C., thaw the plate, centrifuge the plate for 10 min at 3500 rpm, and add 100 μL of the supernatant per well to an ELISA plate. Seal the plate and incubate it for 2 h at 37° C. Wash the wells 4 times with 1× wash buffer. Add 100 μL of recombinant detection antibody per well. Seal the plate, incubate the plate for 1 h at 37° C., and repeat the step of plate washing. Add 100 μL of secondary antibody per well. Seal the plate, incubate the plate for 30 min at 37° C., and repeat the step of plate washing. Add 100 μL of TMB (protected from light) per well. Seal the plate, incubate the plate for 30 min at 37° C., and add 100 μL of the stop solution per well. Gently shake for 30 sec, measure the absorbance with a SpectraMax® 340 PC 384 Absorbance Microplate Reader within 30 min, and read an optical density value at 450 nm. Conduct data analysis using XL Fit software:
Conduct curve fitting using the 4 Parameter Logistic Model or Sigmoidal Dose-Response Model:
X indicating the log value of compound concentration, Y indicating the inhibition ratio (% inhibition), Top indicating the readout of the negative control wells, and bottom indicating the readout of the positive control well.

The target of a further data set is FLT1 (VEGFR1) (Homo sapiens (Human), UniProt P17948). Description: Kinase inhibition, Mobility Shift Assay (VEGFR1). Format: biochemical. The gist of the method:
as §1

For the next data set, the target named is KDR (VEGFR2) (Homo sapiens (Human), UniProt P35968). Briefly: Kinase inhibition, Mobility Shift Assay (VEGFR2). It counts as biochemical. The method, boiled down: as §1
Data set [2] can be described thus: Thermodynamic solubility assay. The settings on record: aqueous buffer, pH 2, aqueous buffer, thermodynamic from solid.
Procedure: After sonication for 10 min, fix them on a shaker and shaking for 8 h at room temperature. After shaking, sonicate for 10 min and centrifuge for 15 min at 13,000 rpm. Pipette 0.1 mL of supernatant into a new tube, shake and rinse it with 5 mL, and discard the liquid. Transfer 0.5 mL of the supernatant again to a new tube, centrifuge it for 15 min at 13,000 rpm, then collect the supernatant (if necessary, dilute with water) and analyze it by LC-MS.
The sample concentrations at 3-5 points are subjected to fitting and reticle for quantification.

EGFR, sequence (P00533 25-1210): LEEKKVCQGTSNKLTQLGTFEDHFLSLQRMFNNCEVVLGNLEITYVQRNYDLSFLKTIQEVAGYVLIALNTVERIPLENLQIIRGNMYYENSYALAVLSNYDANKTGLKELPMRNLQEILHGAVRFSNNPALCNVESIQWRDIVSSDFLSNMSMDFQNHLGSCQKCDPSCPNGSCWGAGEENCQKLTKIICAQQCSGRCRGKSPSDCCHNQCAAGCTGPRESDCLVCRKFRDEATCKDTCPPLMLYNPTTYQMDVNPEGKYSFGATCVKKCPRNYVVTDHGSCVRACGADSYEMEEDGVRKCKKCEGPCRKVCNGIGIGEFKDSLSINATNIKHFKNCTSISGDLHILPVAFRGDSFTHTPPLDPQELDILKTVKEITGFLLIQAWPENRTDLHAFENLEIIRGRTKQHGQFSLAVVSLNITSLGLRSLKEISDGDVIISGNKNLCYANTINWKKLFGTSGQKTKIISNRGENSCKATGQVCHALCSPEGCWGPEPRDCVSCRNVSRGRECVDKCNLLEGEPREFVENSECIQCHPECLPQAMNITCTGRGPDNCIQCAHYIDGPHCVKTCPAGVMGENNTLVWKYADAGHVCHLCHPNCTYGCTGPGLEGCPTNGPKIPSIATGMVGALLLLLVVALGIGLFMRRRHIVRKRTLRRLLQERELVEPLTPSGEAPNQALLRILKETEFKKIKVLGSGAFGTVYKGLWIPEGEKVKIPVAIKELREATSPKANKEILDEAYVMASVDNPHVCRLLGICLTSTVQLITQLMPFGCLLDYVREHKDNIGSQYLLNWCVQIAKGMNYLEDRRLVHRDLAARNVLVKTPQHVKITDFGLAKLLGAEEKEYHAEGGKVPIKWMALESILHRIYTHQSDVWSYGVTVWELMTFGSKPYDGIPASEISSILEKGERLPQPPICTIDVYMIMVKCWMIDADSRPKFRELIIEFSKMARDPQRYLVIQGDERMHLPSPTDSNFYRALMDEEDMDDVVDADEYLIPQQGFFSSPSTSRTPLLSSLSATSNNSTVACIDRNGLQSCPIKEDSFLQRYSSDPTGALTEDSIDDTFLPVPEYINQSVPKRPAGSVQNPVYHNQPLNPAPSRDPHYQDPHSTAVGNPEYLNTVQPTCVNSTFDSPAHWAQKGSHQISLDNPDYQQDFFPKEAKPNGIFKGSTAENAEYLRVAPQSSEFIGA
FLT1 (VEGFR1), sequence (P17948 27-1338): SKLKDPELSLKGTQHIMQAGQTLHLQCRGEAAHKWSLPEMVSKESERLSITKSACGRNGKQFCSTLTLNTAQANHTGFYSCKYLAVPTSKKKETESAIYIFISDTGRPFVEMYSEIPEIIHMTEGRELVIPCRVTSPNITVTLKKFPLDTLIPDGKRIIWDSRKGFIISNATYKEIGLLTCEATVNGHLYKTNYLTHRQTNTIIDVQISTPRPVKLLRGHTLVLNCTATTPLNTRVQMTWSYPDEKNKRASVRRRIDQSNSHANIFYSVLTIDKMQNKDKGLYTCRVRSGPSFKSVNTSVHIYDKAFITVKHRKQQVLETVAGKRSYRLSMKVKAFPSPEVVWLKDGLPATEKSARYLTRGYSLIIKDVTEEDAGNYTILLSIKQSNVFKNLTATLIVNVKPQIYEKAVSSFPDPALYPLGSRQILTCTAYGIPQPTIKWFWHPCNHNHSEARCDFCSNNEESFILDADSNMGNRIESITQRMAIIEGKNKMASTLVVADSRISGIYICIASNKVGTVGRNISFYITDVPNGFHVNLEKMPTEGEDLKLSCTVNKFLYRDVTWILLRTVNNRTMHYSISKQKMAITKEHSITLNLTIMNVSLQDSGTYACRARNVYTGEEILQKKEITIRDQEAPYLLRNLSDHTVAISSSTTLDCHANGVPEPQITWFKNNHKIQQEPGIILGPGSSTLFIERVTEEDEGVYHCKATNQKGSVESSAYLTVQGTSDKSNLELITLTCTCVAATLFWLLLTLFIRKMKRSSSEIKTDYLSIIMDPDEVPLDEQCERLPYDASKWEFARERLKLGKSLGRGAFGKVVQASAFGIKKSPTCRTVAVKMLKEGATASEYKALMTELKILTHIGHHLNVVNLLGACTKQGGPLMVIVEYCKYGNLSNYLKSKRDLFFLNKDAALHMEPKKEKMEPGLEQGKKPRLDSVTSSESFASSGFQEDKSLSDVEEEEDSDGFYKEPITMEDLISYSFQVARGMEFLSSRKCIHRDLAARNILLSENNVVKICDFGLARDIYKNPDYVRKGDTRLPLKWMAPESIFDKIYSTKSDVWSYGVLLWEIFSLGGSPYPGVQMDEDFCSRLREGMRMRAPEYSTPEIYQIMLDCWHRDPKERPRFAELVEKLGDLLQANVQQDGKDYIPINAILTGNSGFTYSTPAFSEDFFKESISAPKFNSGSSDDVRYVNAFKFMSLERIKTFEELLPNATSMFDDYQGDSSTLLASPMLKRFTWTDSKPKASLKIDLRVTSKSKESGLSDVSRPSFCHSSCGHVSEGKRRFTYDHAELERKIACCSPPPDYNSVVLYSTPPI
KDR (VEGFR2), sequence (P35968 790-1356): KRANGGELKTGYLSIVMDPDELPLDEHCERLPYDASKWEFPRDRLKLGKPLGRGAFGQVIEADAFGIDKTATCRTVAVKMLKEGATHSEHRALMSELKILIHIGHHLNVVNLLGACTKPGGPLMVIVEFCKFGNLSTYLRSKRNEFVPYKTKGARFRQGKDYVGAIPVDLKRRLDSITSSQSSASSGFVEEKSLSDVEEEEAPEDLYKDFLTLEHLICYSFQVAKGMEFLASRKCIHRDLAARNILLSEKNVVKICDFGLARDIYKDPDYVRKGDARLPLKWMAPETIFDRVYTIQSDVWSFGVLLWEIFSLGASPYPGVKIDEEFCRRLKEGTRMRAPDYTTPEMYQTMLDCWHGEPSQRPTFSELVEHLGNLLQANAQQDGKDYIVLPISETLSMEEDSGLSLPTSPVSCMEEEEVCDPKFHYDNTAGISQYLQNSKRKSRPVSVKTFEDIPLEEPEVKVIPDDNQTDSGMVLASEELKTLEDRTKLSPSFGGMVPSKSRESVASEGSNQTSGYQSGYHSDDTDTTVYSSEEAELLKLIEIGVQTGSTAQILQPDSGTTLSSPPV
FLT4 (VEGFR3), sequence (P35916 25-1363): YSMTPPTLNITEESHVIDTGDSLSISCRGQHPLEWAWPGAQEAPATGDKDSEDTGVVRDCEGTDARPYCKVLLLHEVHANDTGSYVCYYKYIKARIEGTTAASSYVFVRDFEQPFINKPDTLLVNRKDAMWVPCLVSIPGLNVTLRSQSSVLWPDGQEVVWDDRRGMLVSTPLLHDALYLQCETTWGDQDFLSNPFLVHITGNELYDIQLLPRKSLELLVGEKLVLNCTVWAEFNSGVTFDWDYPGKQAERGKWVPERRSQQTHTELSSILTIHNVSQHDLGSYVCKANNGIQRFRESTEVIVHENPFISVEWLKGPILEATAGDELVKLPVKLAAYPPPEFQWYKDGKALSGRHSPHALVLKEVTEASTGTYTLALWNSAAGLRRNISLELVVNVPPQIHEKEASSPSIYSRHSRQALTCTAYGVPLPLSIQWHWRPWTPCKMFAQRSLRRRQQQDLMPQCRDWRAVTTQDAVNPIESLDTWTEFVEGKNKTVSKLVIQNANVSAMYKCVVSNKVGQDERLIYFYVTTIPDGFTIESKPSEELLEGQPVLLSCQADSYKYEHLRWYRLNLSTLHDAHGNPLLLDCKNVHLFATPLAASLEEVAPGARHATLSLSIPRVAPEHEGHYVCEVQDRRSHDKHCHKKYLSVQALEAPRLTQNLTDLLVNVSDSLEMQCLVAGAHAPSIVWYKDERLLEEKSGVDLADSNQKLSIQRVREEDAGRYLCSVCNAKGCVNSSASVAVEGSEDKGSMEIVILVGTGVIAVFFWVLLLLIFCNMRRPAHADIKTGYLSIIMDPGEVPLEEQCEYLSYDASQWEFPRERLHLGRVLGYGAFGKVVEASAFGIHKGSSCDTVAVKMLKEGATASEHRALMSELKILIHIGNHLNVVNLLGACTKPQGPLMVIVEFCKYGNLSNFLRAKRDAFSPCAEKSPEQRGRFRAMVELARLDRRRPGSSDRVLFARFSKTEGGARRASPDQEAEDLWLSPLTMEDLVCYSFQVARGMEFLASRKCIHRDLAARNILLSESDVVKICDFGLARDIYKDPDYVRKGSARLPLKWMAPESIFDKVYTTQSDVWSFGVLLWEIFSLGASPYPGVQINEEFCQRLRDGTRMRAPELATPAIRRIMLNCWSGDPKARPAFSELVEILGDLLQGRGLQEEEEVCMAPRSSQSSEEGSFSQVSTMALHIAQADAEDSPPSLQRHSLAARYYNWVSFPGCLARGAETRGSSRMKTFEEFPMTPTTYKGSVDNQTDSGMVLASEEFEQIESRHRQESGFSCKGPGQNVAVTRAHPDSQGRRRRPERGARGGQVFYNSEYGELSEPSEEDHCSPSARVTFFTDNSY

With `CNC(=O)c1ccccc1Sc1ccc2c(/C=C/c3ccc(OCCN4CCOCC4)cn3)n[nH]c2c1` [Compound I-3, N-methyl-2-({3-[(E)-2-{5-[2-(morpholin-4-yl)ethoxy]pyridin-2-yl}vinyl]-1H-indazol-6-yl}thio)benzamide], the fraction unbound at 2 h, 2 μM with melanin lay within 0.01 to 0.05. The IC50 is 6000 to 60000 nM on EGFR; at most 1 nM on FLT4 (VEGFR3); at most 1 nM in data set [1]; at most 1 nM on FLT1 (VEGFR1); at most 1 nM at KDR (VEGFR2).

In the case of `CNC(=O)c1ccccc1Sc1ccc2c(/C=C/c3ccc(OCCN4CCCC4)cn3)n[nH]c2c1` [Compound I-6, N-methyl-2-({3-[(E)-2-{5-[2-(pyrrolidin-1-yl)ethoxy]pyridin-2-yl}vinyl]-1H-indazol-6-yl}thio)benzamide], the fraction unbound at 2 h, 2 μM with melanin lay within 0.01 to 0.05. Besides, the IC50 is 6000 to 60000 nM at EGFR; 1 to 10 nM on FLT4 (VEGFR3); 1 to 5 nM in data set [1]; at most 1 nM at FLT1 (VEGFR1); 1 to 10 nM on KDR (VEGFR2).

On to `CNC(=O)c1ccccc1Sc1ccc2c(/C=C/c3cnn(CCN4CCCC4)c3)n[nH]c2c1` [Compound I-9, N-methyl-2-({3-[(E)-2-{1-[2-(pyrrolidin-1-yl)ethyl]-1H-pyrazole-4-yl}vinyl]-1H-indazol-6-yl}thio)benzamide], for which, in the data set on melanin, the fraction unbound at 2 h, 2 μM was in the range of 0.01 to 0.05. Moreover, the IC50 was 6000 to 60000 nM at EGFR; 1 to 10 nM on FLT4 (VEGFR3); at most 1 nM in data set [1]; 1 to 10 nM on FLT1 (VEGFR1); 1 to 10 nM on KDR (VEGFR2).

As to `CNC(=O)c1ccccc1Sc1ccc2c(/C=C/c3cc(OCCN4CCCC4)ccn3)n[nH]c2c1` [Compound I-20, N-methyl-2-({3-[(E)-2-{4-[2-(pyrrolidin-1-yl)ethoxy]pyridin-2-yl}vinyl]-1H-indazol-6-yl}thio)benzamide], in the data set on melanin, the fraction unbound at 2 h, 2 μM lay within 0.01 to 0.05. Besides, the IC50 lay in the range of 6000 to 60000 nM on EGFR; 10 to 100 nM on FLT4 (VEGFR3); 1 to 5 nM in data set [1]; 10 to 100 nM on FLT1 (VEGFR1); 10 to 100 nM on KDR (VEGFR2).

As to `CNC(=O)c1cc(F)ccc1Sc1ccc2c(/C=C/c3ccc(OCCN4CCCC4)cn3)n[nH]c2c1` [Compound I-34, 5-fluoro-N-methyl-2-({3-[(E)-2-{5-[2-(pyrrolidin-1-yl)ethoxy]pyridin-2-yl}vinyl]-1H-indazol-6-yl}thio)benzamide], the fraction unbound at 2 h, 2 μM in the data set on melanin is above 0.05. Moreover, the IC50 is 6000 to 60000 nM at EGFR; 1 to 10 nM on FLT4 (VEGFR3); at most 1 nM in data set [1]; 1 to 10 nM at FLT1 (VEGFR1); 1 to 10 nM at KDR (VEGFR2).

For the compound `CN(C)Cc1ccc(/C=C/c2n[nH]c3cc(Sc4ccccc4C(=O)NC4CC4)ccc23)nc1` [Compound I-40, N-cyclopropyl-2-({3-[(E)-2-{5-[(dimethylamino)methyl]pyridin-2-yl}vinyl]-1H-indazol-6-yl}thio)benzamide], the fraction unbound at 2 h, 2 μM in the data set on melanin lay in the range of 0.01 to 0.05. In addition, the IC50 was 6000 to 60000 nM at EGFR; 1 to 10 nM on FLT4 (VEGFR3); at most 1 nM in data set [1]; at most 1 nM on FLT1 (VEGFR1); at most 1 nM at KDR (VEGFR2).

Turning to `CCNC(=O)c1cc(F)ccc1Sc1ccc2c(/C=C/c3ccc(CN4CCCC4)cn3)n[nH]c2c1` [Compound I-97, N-ethyl-5-fluoro-2-({3-[(E)-2-{5-[(pyrrolidin-1-yl)methyl]pyridin-2-yl}vinyl]-1H-indazol-6-yl}thio)benzamide], in the data set on melanin, the fraction unbound at 2 h, 2 μM fell in the range of 0.01 to 0.05. Besides, the IC50 on EGFR was 6000 to 60000 nM; at FLT4 (VEGFR3), 1 to 10 nM; in data set [1], at most 1 nM; at FLT1 (VEGFR1), 1 to 10 nM; on KDR (VEGFR2), 1 to 10 nM.

For the compound `CNC(=O)c1cc(F)ccc1Sc1ccc2c(/C=C/c3cnn(CCCN4CCCC4)c3)n[nH]c2c1` [Compound I-106], in the data set with melanin, the fraction unbound at 2 h, 2 μM is above 0.05. Besides, the IC50 at EGFR is 6000 to 60000 nM; on KDR (VEGFR2) it was 1 to 10 nM. The same compound yielded a solubility at 8 h in data set [2] of 1580 µg/mL (≈ 3.13 mM).

The IC50 is the concentration that inhibits the measured activity by half. Usually solubility stands for the dissolved amount per volume that the medium holds. Read a high solubility as much dissolved substance.
